The test addresses GCN2 (Homo sapiens, UniProt Q9P2K8). Briefly: GCN2 enzyme assay (TR-FRET Lanthascreen, phosphorylation of GFP-eIF2alpha). Format: biochemical. The conditions noted are these: 10 μM ATP, 80 nM GFP-eIF2alpha, 30 nM GCN2, room temperature. The text has this:
GCN2: Assay principle & conditions
This assay can quantificate the activity of the serin kinase GCN2 (general control non-derepressible-2).
This kinase is involved in the stress metabolism of cells. It is activated upon starvation (amino acid depletion). Its natural substrate is eIF2a (eukaryotic initiation factor 2 alpha subunit), a translation factor, which gets activated (phosphorylated) by GCN2 in case of an amino acid bottleneck in the cells. This in turn leads to a halt of the protein synthesis. Inhibition of GCN2 results in stopping this mechanism: The cell can not stop protein production upon “starvation” stress.
The assay is run in two steps: the enzymatic reaction and the detection step. In the first step GCN2 is incubated with 10 μM ATP and 80 nM of the GFP-labelled substrate eIF2alpha at room temperature.
The enzymatic reaction is stopped by addition of EDTA. The amount of phosphorylated eIF2alpha is determined by TR-FRET (Lanthascreen): A complex is formed consisting of antibody and GFP labelled phospho-eIF2a, which allows a FRET upon exitation at 340 nm.
The GCN2-activity is directly proportional to the ratio of fluorescence units at the emission wavelengthh 520 nm (phosphopeptide-sensitive wavelength=emission of GFP) to the units at 495 nm (reference wavelength=emission of Terbium-chelate).
Final Concentrations in the Enzymatic Reaction
For orientation: Time-resolved FRET reads energy transfer from a long-lived donor to a nearby acceptor.

Chain of GCN2 (Q9P2K8 whole entry, species assumed): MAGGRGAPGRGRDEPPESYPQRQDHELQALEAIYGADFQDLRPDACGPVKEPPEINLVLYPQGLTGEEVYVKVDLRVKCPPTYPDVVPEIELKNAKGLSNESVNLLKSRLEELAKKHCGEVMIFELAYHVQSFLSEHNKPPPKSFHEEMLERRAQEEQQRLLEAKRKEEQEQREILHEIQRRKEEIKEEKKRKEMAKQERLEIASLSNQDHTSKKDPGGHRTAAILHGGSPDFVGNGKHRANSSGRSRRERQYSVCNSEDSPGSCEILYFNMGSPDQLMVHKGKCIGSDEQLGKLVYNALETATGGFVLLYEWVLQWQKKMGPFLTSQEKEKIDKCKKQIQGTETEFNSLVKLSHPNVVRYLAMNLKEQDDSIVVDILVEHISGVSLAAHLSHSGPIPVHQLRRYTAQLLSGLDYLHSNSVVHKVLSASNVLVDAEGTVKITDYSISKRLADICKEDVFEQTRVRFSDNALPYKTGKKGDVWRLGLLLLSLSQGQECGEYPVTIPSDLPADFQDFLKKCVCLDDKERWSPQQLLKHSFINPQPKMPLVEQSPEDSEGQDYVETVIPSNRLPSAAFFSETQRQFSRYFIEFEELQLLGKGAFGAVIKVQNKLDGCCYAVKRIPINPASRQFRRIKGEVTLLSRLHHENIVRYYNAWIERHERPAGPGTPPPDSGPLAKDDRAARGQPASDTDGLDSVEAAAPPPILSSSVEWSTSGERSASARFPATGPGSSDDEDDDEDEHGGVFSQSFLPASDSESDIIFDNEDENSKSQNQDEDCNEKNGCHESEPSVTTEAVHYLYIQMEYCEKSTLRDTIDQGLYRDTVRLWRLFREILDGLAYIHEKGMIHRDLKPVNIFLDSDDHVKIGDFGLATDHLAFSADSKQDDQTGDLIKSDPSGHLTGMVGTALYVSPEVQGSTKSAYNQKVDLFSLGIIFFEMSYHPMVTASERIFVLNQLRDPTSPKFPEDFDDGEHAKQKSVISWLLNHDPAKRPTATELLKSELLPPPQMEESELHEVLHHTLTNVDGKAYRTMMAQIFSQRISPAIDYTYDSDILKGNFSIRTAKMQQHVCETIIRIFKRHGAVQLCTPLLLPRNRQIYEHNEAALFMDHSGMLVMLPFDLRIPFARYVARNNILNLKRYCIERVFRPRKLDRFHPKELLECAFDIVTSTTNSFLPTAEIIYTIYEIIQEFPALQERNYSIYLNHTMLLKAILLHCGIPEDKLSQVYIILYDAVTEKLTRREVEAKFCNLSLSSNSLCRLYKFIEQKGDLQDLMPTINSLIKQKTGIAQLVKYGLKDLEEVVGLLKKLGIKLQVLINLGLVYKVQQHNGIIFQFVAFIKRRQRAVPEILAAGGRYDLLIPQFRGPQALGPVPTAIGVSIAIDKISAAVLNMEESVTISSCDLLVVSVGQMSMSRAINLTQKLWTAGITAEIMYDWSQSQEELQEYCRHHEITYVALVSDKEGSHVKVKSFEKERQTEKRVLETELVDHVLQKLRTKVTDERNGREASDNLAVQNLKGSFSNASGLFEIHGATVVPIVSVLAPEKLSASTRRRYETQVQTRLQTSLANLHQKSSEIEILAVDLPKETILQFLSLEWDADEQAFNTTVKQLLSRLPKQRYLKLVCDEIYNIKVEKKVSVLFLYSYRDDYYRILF

The IC50 is the midpoint of a concentration-inhibition curve. Lower therefore signals greater potency. `CCn1cc(Nc2ncc3nnn(-c4ccc(C(C)(C)N)cc4)c3n2)cn1` [Compound A148, {3-[4-(1-amino-1-methyl-ethyl)-phenyl]-3H-[1,2,3]triazolo[4,5-d]pyrimidin-5-yl}-(1-ethyl-1H-pyrazol-4-yl)-amine] gave an IC50 of 300 to 3000 nM.

For `Cn1ccc(-n2nnc3cnc(Nc4cnn(C5CCOCC5)c4)nc32)n1` [Compound A147, [3-(1-methyl-1H-pyrazol-3-yl)-3H-[1,2,3]triazolo[4,5-d]pyrimidin-5-yl]-[1-(tetrahydro-pyran-4-yl)-1H-pyrazol-4-yl]-amine], the IC50 is 300 to 3000 nM.

`COc1ccc(-n2nnc3cnc(/N=C4/N=C(C)CO4)nc32)cc1` [Compound A12, [3-(4-methoxy-phenyl)-3H-[1,2,3]triazolo[4,5-d]pyrimidin-5-yl]-[4-methyl-5H-oxazol-(2Z)-ylidene]-amine] came in with an IC50 of 3000 to 50000 nM.

Consider `CN1CCC(n2cc(Nc3ncc4nnn(-c5ccc(S(=O)(=O)N6CCCC6)cc5)c4n3)cn2)CC1` [Compound A136, [1-(1-methyl-piperidin-4-yl)-1H-pyrazol-4-yl]-{3-[4-(pyrrolidine-1-sulfonyl)-phenyl]-3H-[1,2,3]triazolo[4,5-d]pyrimidin-5-yl}-amine], for which the IC50 lay in the range of 300 to 3000 nM.

The compound `CC(C)(F)c1ccc(-n2nnc3cnc(Nc4cnn(C5CCOCC5)c4)nc32)cc1` [Compound A144, {3-[4-(1-fluoro-1-methyl-ethyl)-phenyl]-3H-[1,2,3]triazolo[4,5-d]pyrimidin-5-yl}-[1-(tetrahydro-pyran-4-yl)-1H-pyrazol-4-yl]-amine] yielded an IC50 of under 300 nM.

As to `CCn1cc(Nc2ncc3nnn(-c4cnc5ccccc5c4)c3n2)cn1` [Compound A61, (1-ethyl-1H-pyrazol-4-yl)-(3-quinolin-3-yl-3H-[1,2,3]triazolo[4,5-d]pyrimidin-5-yl)-amine], the IC50 is under 300 nM.

For `CCn1cc(Nc2ncc3nnn(-c4ccc(O)cc4)c3n2)cn1` [Compound A66, 4-[5-(1-ethyl-1H-pyrazol-4-ylamino)-[1,2,3]triazolo[4,5-d]pyrimidin-3-yl]-phenol], the half-maximal inhibitory concentration (IC50) is under 300 nM.

`c1cnc2cc(-n3nnc4cnc(Nc5cnn(C6CCOCC6)c5)nc43)ccc2c1` [Compound A86, (3-quinolin-7-yl-3H-[1,2,3]triazolo[4,5-d]pyrimidin-5-yl)-[1-(tetrahydro-pyran-4-yl)-1H-pyrazol-4-yl]-amine] came in with an IC50 of under 300 nM.

For the compound `c1cnc2cc(-n3nnc4cnc(Nc5cnn(CCn6cccn6)c5)nc43)ccc2c1` [Compound A134, [1-(2-pyrazol-1-yl-ethyl)-1H-pyrazol-4-yl]-(3-quinolin-7-yl-3H-[1,2,3]triazolo[4,5-d]pyrimidin-5-yl)-amine], the IC50 was 300 to 3000 nM.

For `COCCCn1cc(Nc2ncc3nnn(-c4ccc(OC)cc4)c3n2)cn1` [Compound A9, [3-(4-methoxy-phenyl)-3H-[1,2,3]triazolo[4,5-d]pyrimidin-5-yl]-[1-(3-methoxy-propyl)-1H-pyrazol-4-yl]-amine], the IC50 was 300 to 3000 nM.

Take `O[C@H]1CC[C@@H](n2cc(Nc3ncc4nnn(-c5ccc(Cl)c(F)c5)c4n3)cn2)CC1` [Compound A102, 4-{4-[3-(4-chloro-3-fluoro-phenyl)-3H-[1,2,3]triazolo[4,5-d]pyrimidin-5-ylamino]-pyrazol-1-yl}-cyclohexanol]: the IC50 lay within 300 to 3000 nM.

As to `CCOc1ccc(-n2nnc3cnc(Nc4cnn(CCC(C)C)c4)nc32)cc1` [Compound A88, [3-(4-ethoxy-phenyl)-3H-[1,2,3]triazolo[4,5-d]pyrimidin-5-yl]-[1-(3-methyl-butyl)-1H-pyrazol-4-yl]-amine], the IC50 is under 300 nM.

On to `CC(C)CCn1cc(Nc2ncc3nnn(-c4ccc5ncccc5c4)c3n2)cn1` [Compound A90, [1-(3-methyl-butyl)-1H-pyrazol-4-yl]-(3-quinolin-6-yl-3H-[1,2,3]triazolo[4,5-d]pyrimidin-5-yl)-amine], for which the IC50 is under 300 nM.

For `CCOc1ccc(-n2nnc3cnc(Nc4cnn(C5CCNCC5)c4)nc32)cc1` [Compound A7, [3-(4-Ethoxy-phenyl)-3H-[1,2,3]triazolo[4,5-d]pyrimidin-5-yl]-(1-piperidin-4-yl-1H-pyrazol-4-yl)-amine], the IC50 is under 300 nM.

As for `CN1CCC(n2cc(Nc3ncc4nnn(-c5cnc6ccccc6c5)c4n3)cn2)CC1` [Compound A52, [1-(1-methyl-piperidin-4-yl)-1H-pyrazol-4-yl]-(3-quinolin-3-yl-3H-[1,2,3]triazolo[4,5-d]pyrimidin-5-yl)-amine], the IC50 was under 300 nM.

In turn, `CC(C)(C)OCCn1cc(Nc2ncc3nnn(-c4ccc(Cl)c(F)c4)c3n2)cn1` [Compound A53, [1-(2-tert-butoxy-ethyl)-1H-pyrazol-4-yl]-[3-(4-chloro-3-fluoro-phenyl)-3H-[1,2,3]triazolo[4,5-d]pyrimidin-5-yl]-amine] yielded an IC50 of 300 to 3000 nM.

The compound `CCCCOc1ccc(-n2nnc3cnc(Nc4cnn(C5CCN(C)CC5)c4)nc32)cn1` [Compound A45, [3-(6-butoxy-pyridin-3-yl)-3H-[1,2,3]triazolo[4,5-d]pyrimidin-5-yl]-[1-(1-methyl-piperidin-4-yl)-1H-pyrazol-4-yl]-amine] displayed a half-inhibitory concentration (IC50) of 300 to 3000 nM.

On to `Fc1ccc(-n2nnc3cnc(Nc4cnn(C5CCOCC5)c4)nc32)cc1Cl` [Compound A110, [3-(3-chloro-4-fluoro-phenyl)-3H-[1,2,3]triazolo[4,5-d]pyrimidin-5-yl]-[1-(tetrahydro-pyran-4-yl)-1H-pyrazol-4-yl]-amine], for which the concentration for half-maximal inhibition (IC50) is 300 to 3000 nM.

The compound `Nc1ccc(-n2nnc3cnc(Nc4cnn(C[C@@H]5C[C@H]5CO)c4)nc32)cn1` (relative stereo) [Compound A60, ((trans)-2-{4-[3-(6-amino-pyridin-3-yl)-3H-[1,2,3]triazolo[4,5-d]pyrimidin-5-ylamino]-pyrazol-1-ylmethyl}-cyclopropyl)-methanol] yielded an IC50 of 300 to 3000 nM.

For `CCOc1ccc(-n2nnc3cnc(Nc4cnn(C5CN(C(=O)COC)C5)c4)nc32)cc1` [Compound A150, 1-(3-{4-[3-(4-ethoxy-phenyl)-3H-[1,2,3]triazolo[4,5-d]pyrimidin-5-ylamino]-pyrazol-1-yl}-azetidin-1-yl)-2-methoxy-ethanone], the half-inhibitory concentration (IC50) is under 300 nM.

The compound `COc1ccc(-n2nnc3cnc(Nc4ccn(C)n4)nc32)cc1` [Compound A2, [3-(4-methoxy-phenyl)-3H-[1,2,3]triazolo[4,5-d]pyrimidin-5-yl]-(1-methyl-1H-pyrazol-3-yl)-amine] yielded an IC50 of 3000 to 50000 nM.

As for `COc1cc(-n2nnc3cnc(Nc4cnn(C5CCOCC5)c4)nc32)ccn1` [Compound A78, [3-(2-methoxy-pyridin-4-yl)-3H-[1,2,3]triazolo[4,5-d]pyrimidin-5-yl]-[1-(tetrahydro-pyran-4-yl)-1H-pyrazol-4-yl]-amine], the IC50 was under 300 nM.

`CCn1cc(Nc2ncc3nnn(-c4ccnc(OC)c4)c3n2)cn1` [Compound A62, (1-ethyl-1H-pyrazol-4-yl)-[3-(2-methoxy-pyridin-4-yl)-3H-[1,2,3]triazolo[4,5-d]pyrimidin-5-yl]-amine]: the half-inhibitory concentration (IC50) is under 300 nM.

In the case of `COc1ccc(-n2nnc3cnc(Nc4cnn(Cc5ccccc5)c4)nc32)cc1` [Compound A10, (1-benzyl-1H-pyrazol-4-yl)-[3-(4-methoxy-phenyl)-3H-[1,2,3]triazolo[4,5-d]pyrimidin-5-yl]-amine], the IC50 was 3000 to 50000 nM.

`O=S(=O)(c1ccc(-n2nnc3cnc(Nc4cnn(CCn5cccn5)c4)nc32)cc1)N1CCCC1` [Compound A133, [1-(2-pyrazol-1-yl-ethyl)-1H-pyrazol-4-yl]-{3-[4-(pyrrolidine-1-sulfonyl)-phenyl]-3H-[1,2,3]triazolo[4,5-d]-pyrimidin-5-yl}-amine] yielded an IC50 of under 300 nM.

In the case of `COc1ccc(-n2nnc3cnc(Nc4nc(-c5ccc(NC(C)=O)cc5)cs4)nc32)cc1` [Compound A42, N-[4-[2-[[3-(4-methoxyphenyl)triazolo[4,5-d]pyrimidin-5-yl]amino]thiazol-4-yl]phenyl]acetamide], the IC50 is 300 to 3000 nM.

Regarding `COC(=O)c1ccc(-n2nnc3cnc(Nc4cnn(C5CCOCC5)c4)nc32)cc1` [Compound A113, 4-{5-[1-(tetrahydro-pyran-4-yl)-1H-pyrazol-4-ylamino]-[1,2,3]triazolo[4,5-d]pyrimidin-3-yl}-benzoic acid methyl ester], the IC50 was under 300 nM.

As to `COc1ccc(-n2nnc3cnc(Nc4cnn([C@H]5CC[C@@H](O)CC5)c4)nc32)nc1` [Compound A141, 4-{4-[3-(5-methoxy-pyridin-2-yl)-3H-[1,2,3]triazolo[4,5-d]pyrimidin-5-ylamino]-pyrazol-1-yl}-cyclohexanol], the IC50 is under 300 nM.

`Cn1cc(Nc2ncc3nnn(-c4cnn(C)c4)c3n2)cn1` [Compound A21, (1-methyl-1H-pyrazol-4-yl)-[3-(1-methyl-1H-pyrazol-4-yl)-3H-[1,2,3]triazolo[4,5-d]pyrimidin-5-yl]-amine] displayed an IC50 of under 300 nM.

The compound `NS(=O)(=O)c1ccc(-n2nnc3cnc(Nc4cnn(CCn5cccn5)c4)nc32)cc1` [Compound A135, 4-{5-[1-(2-pyrazol-1-yl-ethyl)-1H-pyrazol-4-ylamino]-[1,2,3]triazolo[4,5-d]pyrimidin-3-yl)-benzenesulfonamide] gave an IC50 of under 300 nM.

Values taken from US9409914B2, “Triazolo[4,5-d]pyrimidine derivatives” (Merck Patent GmbH, priority 2012, dated 2016).
